Where two headings read alike, the source gives them in different places.

In the assay the test system is HCV proteins in Rep5.1 cells (replicon cell line). Briefly: Inhibitory activity of HCV: cell-based ELISA in replicon cell line Rep5.1 (decrease of HCV proteins). The note with it: Rep5.1 cells, 72 hours with drug. Also noted: species or system hepatitis C virus. A digest of the protocol: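 HCV protein loss was quantified by ELISA on methanol/acetone-fixed cells 72 h after drug addition, probing with selected HCV-positive human plasma, and IC50 was defined as 50% reduction relative to untreated wells. The cells were Rep5.1 replicon cells cultured in DMEM-10 with 500 μg/ml G418, plated at 5000 per well and dosed with serial dilutions after 4 h attachment.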

[1] abbreviates: Hepatitis C virus, 72 h, concentration at which 50% of HCV proteins was decreased, Table 2, read-out: IC50.
The mark [2] stands for this setting: Hepatitis C virus, 72 h, decrease of HCV proteins measured by HCV antibody, Table 1, read-out: Level (IC50 values classified).

In the case of `CC1=C(C(=O)OCCCc2ccsc2)C(CO)NC(=S)N1` (centres unmarked) [6″, 4-hydroxymethyl-6-methyl-2-thioxo-1,2,3,4-tetrahydro-pyrimidine-5-carboxylic acid 3-thiophen-3-yl-propyl ester], the concentration for half-maximal inhibition (IC50) is 1900 nM under setting [1] and 1000 to 10000 nM under setting [2]. Taken in the same sequence, the figures for `COc1c(C)cc(COC(=O)C2=C(C)NC(=S)NC2)cc1C` [Compound 180, 6-methyl-2-thioxo-1,2,3,4-tetrahydro-pyrimidine-5-carboxylic acid 4-methoxy-3,5-dimethyl-benzyl ester] were 800 nM and less than 1000 nM. Taken in the same sequence, the figures for `CC1=C(C(=O)OCc2ccc(F)cc2F)CNC(=S)N1` [Compound 69, 6-methyl-2-thioxo-1,2,3,4-tetrahydro-pyrimidine-5-carboxylic acid 2,4-difluoro-benzyl ester] were 1200 nM and 1000 to 10000 nM. The matching figures for `CC1=C(C(=O)OCCc2ccsc2)C(CF)NC(=S)N1` (centres unmarked) [Compound 252, 4-fluoromethyl-6-methyl-2-thioxo-1,2,3,4-tetrahydro-pyrimidine-5-carboxylic acid 2-thiophen-3-yl-ethyl ester]: 1400 nM and 1000 to 10000 nM.

As to `CC1=C(C(=O)OCc2cc(C(F)(F)F)cc(C(F)(F)F)c2)CNC(=S)N1` [Compound 148, 6-methyl-2-thioxo-1,2,3,4-tetrahydro-pyrimidine-5-carboxylic acid 3,5-bis-trifluoromethyl-benzyl ester], the concentration for half-maximal inhibition (IC50) reads like this: under setting [1], less than 400 nM; under setting [2], less than 1000 nM. For the compound `CC1=C(C(=O)SCCc2ccccc2)C(CF)NC(=S)N1` (centres unmarked) [88′, 4-fluoromethyl-6-methyl-2-thioxo-1,2,3,4-tetrahydro-pyrimidine-5-carbothioic acid S-phenethyl ester], the IC50 under setting [1] came out at 400 nM and the IC50 under setting [2] was less than 1000 nM. Consider `C#CCCCOC(=O)C1=C(C)NC(=S)NC1` [Compound 130, 6-methyl-2-thioxo-1,2,3,4-tetrahydro-pyrimidine-5-carboxylic acid pent-4-inyl ester], for which the IC50 (concentration at which 50% of HCV proteins was decreased, Table 2, read-out: IC50) was found to be 35000 nM. Take `CC1=C(C(=O)OCc2c(C)cccc2C)CNC(=S)N1` [Compound 184, 6-methyl-2-thioxo-1,2,3,4-tetrahydro-pyrimidine-5-carboxylic acid 2,6-dimethyl-benzyl ester]: the IC50 reads like this: under setting [1], 19000 nM; under setting [2], 10000 to 20000 nM. Taken in the same sequence, the figures for `CC1=C(C(=O)OCCCc2ccco2)CNC(=S)N1` [Compound 250, 6-methyl-2-thioxo-1,2,3,4-tetrahydro-pyrimidine-5-carboxylic acid 3-furan-2-yl-propyl ester] were 400 nM and less than 1000 nM. The matching figures for `CC1=C(C(=O)OCc2ccccc2C)CNC(=S)N1` [Compound 231, 6-methyl-2-thioxo-1,2,3,4-tetrahydro-pyrimidine-5-carboxylic acid 2-methyl-benzyl ester]: 700 nM and less than 1000 nM. Taken in the same sequence, the figures for `CC1=C(C(=O)OCCCCc2ccsc2)C(CO)NC(=S)N1` (centres unmarked) [25″, 4-hydroxymethyl-6-methyl-2-thioxo-1,2,3,4-tetrahydro-pyrimidine-5-carboxylic acid 4-thiophen-3-yl-butyl ester] were 2000 nM and 1000 to 10000 nM. For the compound `CC1=C(C(=O)OCc2ccc(C)s2)CNC(=S)N1` [Compound 232, 6-methyl-2-thioxo-1,2,3,4-tetrahydro-pyrimidine-5-carboxylic acid 5-methyl-thiophen-2-ylmethyl ester], the IC50 under setting [1] worked out at 20000 nM and the IC50 under setting [2] fell in the range of 10000 to 20000 nM.

`CC1=C(C(=O)OCCc2ccc(F)c(F)c2)C(CO)NC(=S)N1` (centres unmarked) [68″, 4-hydroxymethyl-6-methyl-2-thioxo-1,2,3,4-tetrahydro-pyrimidine-5-carboxylic acid 2-(3,4-difluoro-phenyl)-ethyl ester]: the IC50 by setting is: under setting [1], 2700 nM; under setting [2], 1000 to 10000 nM. `COCCN(C)c1ccc(CCOC(=O)C2=C(C)NC(=S)NC2)cc1` [Compound 209, 6-methyl-2-thioxo-1,2,3,4-tetrahydro-pyrimidine-5-carboxylic acid 2-{4-[(2-methoxy-ethyl)-methyl-amino]-phenyl}-ethyl ester]: the IC50 reads like this: under setting [1], less than 400 nM; under setting [2], less than 1000 nM. Taken in the same sequence, the figures for `O=C(OCc1ccccc1)C1=CNC(=S)NC1` [Compound 44, 2-thioxo-1,2,3,4-tetrahydro-pyrimidine-5-carboxylic acid benzyl ester] were 3000 nM and 1000 to 10000 nM.

For the compound `COc1ccc(COC(=O)C2=C(C)NC(=S)NC2)cc1Br` [Compound 141, 6-methyl-2-thioxo-1,2,3,4-tetrahydro-pyrimidine-5-carboxylic acid 3-bromo-4-methoxy-benzyl ester], the half-maximal inhibitory concentration (IC50) is 700 nM under setting [1] and less than 1000 nM under setting [2].

As to `CC1=C(C(=O)OCC2CC2)CNC(=S)N1` [Compound 46, 6-methyl-2-thioxo-1,2,3,4-tetrahydro-pyrimidine-5-carboxylic acid cyclopropylmethyl ester], the half-maximal inhibitory concentration (IC50) is, setting by setting: under setting [1], 30000 nM; under setting [2], 10000 to 20000 nM. The matching figures for `CC1=C(C(=O)OCCc2ccc(F)c(C)c2)C(CO)NC(=S)N1` (centres unmarked) [66″, 4-hydroxymethyl-6-methyl-2-thioxo-1,2,3,4-tetrahydro-pyrimidine-5-carboxylic acid 2-(4-fluoro-3-methyl-phenyl)-ethyl ester]: 700 nM and less than 1000 nM. Taken in the same sequence, the figures for `CC1=C(C(=O)OCc2ccccc2S(C)(=O)=O)CNC(=S)N1` [Compound 112, 6-methyl-2-thioxo-1,2,3,4-tetrahydro-pyrimidine-5-carboxylic acid 2-methanesulfonyl-benzyl ester] were more than 100000 nM and more than 20000 nM. Taken in the same sequence, the figures for `CC1=C(C(=O)OCC(Br)=CBr)CNC(=S)N1` [Compound 193, 6-methyl-2-thioxo-1,2,3,4-tetrahydro-pyrimidine-5-carboxylic acid 2,3-dibromo-allyl ester] were 1000 nM and less than 1000 nM. In the case of `CC1=C(C(=O)OCc2ccc([S+](C)[O-])cc2)CNC(=S)N1` (centres unmarked) [Compound 52, 6-methyl-2-thioxo-1,2,3,4-tetrahydro-pyrimidine-5-carboxylic acid 4-methylsulfinyl-benzyl ester], the IC50 under setting [1] is 700 nM and the IC50 under setting [2] is less than 1000 nM. The matching figures for `CC1=C(C(=O)OCc2cc(Cl)ccc2[N+](=O)[O-])C(CF)NC(=S)N1` (centres unmarked) [78′, 4-fluoromethyl-6-methyl-2-thioxo-1,2,3,4-tetrahydro-pyrimidine-5-carboxylic acid 5-chloro-2-nitro-benzyl ester]: 11000 nM and 10000 to 20000 nM. With `CC1=C(C(=O)OCCc2cccc(Cl)c2)C(CF)NC(=S)N1` (centres unmarked) [70′, 4-fluoromethyl-6-methyl-2-thioxo-1,2,3,4-tetrahydro-pyrimidine-5-carboxylic acid 2-(3-chloro-phenyl)-ethyl ester], the IC50 reads like this: under setting [1], 1000 nM; under setting [2], less than 1000 nM.

With `CCOc1ccc(CCOC(=O)C2=C(C)NC(=S)NC2CO)cc1` (centres unmarked) [60″, 4-hydroxymethyl-6-methyl-2-thioxo-1,2,3,4-tetrahydro-pyrimidine-5-carboxylic acid 2-(4-ethoxy-phenyl)-ethyl ester], the half-maximal inhibitory concentration (IC50) was 2500 nM under setting [1] and 1000 to 10000 nM under setting [2]. In the case of `COc1ccc(COC(=O)C2=C(C)NC(=S)NC2)cc1` [Compound 8, 6-methyl-2-thioxo-1,2,3,4-tetrahydro-pyrimidine-5-carboxylic acid 4-methoxy-benzyl ester], the IC50 was 3000 nM under setting [1] and 1000 to 10000 nM under setting [2]. Take `CC1=C(C(=O)OCCC2CC2)CNC(=S)N1` [2′, 6-methyl-2-thioxo-1,2,3,4-tetrahydro-pyrimidine-5-carboxylic acid 2-cyclopropyl-ethyl ester]: the IC50 under setting [1] was 2400 nM and the IC50 under setting [2] lay within 1000 to 10000 nM. Turning to `CC1=C(C(=O)OCCCc2ccsc2)CNC(=S)N1` [Compound 243, 6-methyl-2-thioxo-1,2,3,4-tetrahydro-pyrimidine-5-carboxylic acid 3-thiophen-3-yl-propyl ester], the IC50 reads like this: under setting [1], less than 400 nM; under setting [2], less than 1000 nM.

These data come from patent US20060116390A1, “Hepatitis c virus inhibitors” (priority 2003, published 2006).
